Source: ChEMBL document CHEMBL1201862, “PubChem BioAssay data set” (2004)
Calls of active or inactive are those of the source.

Tests used:
[1] = molecular target: T1, RNA-binding protein pos-1 (Caenorhabditis elegans, UniProt G5EF15); assay: disruptors of C. elegans POS-1 RNA interaction – biochemical, fluorescence polarization, dose response (AID 1964);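 also: purified POS-1 fused to maltose binding protein made in E. coli; potency of compounds blocking POS-1 binding to fluorescent RNA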
T1 sequence (G5EF15 whole entry): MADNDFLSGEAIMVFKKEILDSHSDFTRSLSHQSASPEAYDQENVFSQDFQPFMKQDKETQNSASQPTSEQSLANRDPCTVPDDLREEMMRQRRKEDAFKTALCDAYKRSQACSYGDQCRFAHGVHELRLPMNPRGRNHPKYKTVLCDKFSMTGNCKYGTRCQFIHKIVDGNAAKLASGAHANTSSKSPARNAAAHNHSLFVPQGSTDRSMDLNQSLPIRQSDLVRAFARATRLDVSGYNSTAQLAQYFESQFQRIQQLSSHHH

[2] = molecular target: T2, Zinc finger protein mex-5 (Caenorhabditis elegans, UniProt Q9XUB2); assay: potency of MEX-5 RNA-binding blockers – biochemical, C. elegans, fluorescence polarization, dose response (AID 1960)
T2 sequence (Q9XUB2 whole entry): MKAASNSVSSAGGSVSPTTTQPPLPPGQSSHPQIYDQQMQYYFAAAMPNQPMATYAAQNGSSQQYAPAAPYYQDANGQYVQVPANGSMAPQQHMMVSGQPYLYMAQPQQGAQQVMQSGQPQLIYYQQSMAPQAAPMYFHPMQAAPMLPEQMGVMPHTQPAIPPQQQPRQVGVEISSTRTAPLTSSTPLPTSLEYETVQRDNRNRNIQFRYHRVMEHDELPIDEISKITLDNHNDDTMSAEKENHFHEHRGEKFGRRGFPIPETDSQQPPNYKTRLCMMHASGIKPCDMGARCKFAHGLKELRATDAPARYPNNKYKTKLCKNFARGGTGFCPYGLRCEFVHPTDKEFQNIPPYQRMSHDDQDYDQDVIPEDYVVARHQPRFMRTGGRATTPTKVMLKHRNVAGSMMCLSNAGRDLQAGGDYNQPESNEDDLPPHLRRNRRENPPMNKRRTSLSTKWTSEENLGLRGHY

Streptokinase A = molecular target: T3, Streptokinase A (Streptococcus pyogenes serotype M1, UniProt P10520); assay: viability-normalized secreted streptokinase activity reduction – plasminogen activation absorbance, OD405, dose response (AID 1914); assay type: functional, Streptococcus pyogenes M1 GAS;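 also: secreted streptokinase activity via plasminogen activation per viability signal from cell pellet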
T3 sequence (P10520 whole entry): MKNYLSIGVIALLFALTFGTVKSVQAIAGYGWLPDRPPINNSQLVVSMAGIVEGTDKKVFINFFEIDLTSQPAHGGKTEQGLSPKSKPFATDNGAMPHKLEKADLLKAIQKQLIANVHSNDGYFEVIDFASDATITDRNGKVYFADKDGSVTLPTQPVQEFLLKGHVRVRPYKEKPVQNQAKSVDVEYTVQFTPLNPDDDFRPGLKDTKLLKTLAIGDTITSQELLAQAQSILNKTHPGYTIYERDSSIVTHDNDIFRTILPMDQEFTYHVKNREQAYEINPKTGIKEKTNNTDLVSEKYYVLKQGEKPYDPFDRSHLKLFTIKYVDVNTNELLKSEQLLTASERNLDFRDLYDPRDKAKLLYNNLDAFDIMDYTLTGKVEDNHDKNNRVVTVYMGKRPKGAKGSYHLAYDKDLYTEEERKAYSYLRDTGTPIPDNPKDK

Streptococcus = assay: GAS UMAA2166 growth inhibition – luminescence, BacTiterGlo, counter-screen for streptokinase expression inhibitor project, dose response (AID 1915); assay type: functional, organism-based;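 also: potency for reduction of bacterial viability or growth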
[3] = test system: Streptococcus sp. 'group A'; assay: Streptococcus pyogenes SK(-)GAS viability under kanamycin – luminescence, BacTiterGlo, confirmation, counter-screen for streptokinase expression inhibitor project, dose response (AID 1900); assay type: functional, organism-based
[4] = NIH-3T3 fibroblast cytotoxicity, dose response, cytotoxicity control, cell-based, fluorescence, Alamar Blue, secondary assay (AID 2327); assay type: functional;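 also: NIH-3T3 mouse fibroblasts cultured with fluconazole at 8 µg/mL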
[5] = fluconazole-exposed Candida albicans growth modulators – fluorescence, retest, confirmation (AID 2467); assay type: functional, cell-based
Cytochrome P450 2C19 = Cytochrome P450 2C19 (Homo sapiens, UniProt P33261); assay: Cytochrome panel assay with activity outcomes. Panel member name: p450-cyp2c19 Compounds with AC50 equal or less than 10 uM are considered active; assay type: functional
Cytochrome P450 2C9 = Cytochrome P450 2C9 (Homo sapiens, UniProt P11712)
[6] = viability of uninfected HEp-2 cells – cell-based, HTS, cytotoxicity control for RSV inhibitor project, dose response (AID 2410); assay type: functional; conditions: human respiratory syncytial virus
Cytochrome P450 1A2 = molecular target: T4, Cytochrome P450 1A2 (Homo sapiens, UniProt P05177);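 also: PubChem cytochrome P450 panel assay, CYP1A2 panel member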
T4 sequence (P05177 whole entry): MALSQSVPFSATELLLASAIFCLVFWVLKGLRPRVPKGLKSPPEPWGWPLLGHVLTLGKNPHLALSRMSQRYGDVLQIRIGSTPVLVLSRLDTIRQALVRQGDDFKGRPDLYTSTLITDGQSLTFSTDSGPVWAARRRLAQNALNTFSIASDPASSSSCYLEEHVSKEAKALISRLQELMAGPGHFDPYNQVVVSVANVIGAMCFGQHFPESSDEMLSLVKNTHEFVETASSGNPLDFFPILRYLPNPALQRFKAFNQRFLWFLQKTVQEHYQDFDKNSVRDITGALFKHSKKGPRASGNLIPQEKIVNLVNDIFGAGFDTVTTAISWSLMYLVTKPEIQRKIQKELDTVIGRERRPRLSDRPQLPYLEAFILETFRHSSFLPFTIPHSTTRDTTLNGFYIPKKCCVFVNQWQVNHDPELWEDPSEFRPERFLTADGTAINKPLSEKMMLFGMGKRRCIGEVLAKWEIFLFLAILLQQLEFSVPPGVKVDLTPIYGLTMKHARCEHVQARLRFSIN

[7] = viability of PTEN-deleted HCT116 cells – cell-based, HCT116 PTEN knockout, dose response (AID 1047); assay type: functional;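 also: HCT116 colon tumor cells with PTEN knocked out; cells exposed to compound for 60 hours before readout; potency for loss of cell viability measured by luminescence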
[8] = viability of HCT116 lacking mutant beta-catenin – cell-based, human colon tumor, dose response (AID 1045); assay type: functional;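 also: HCT116 colon tumor cells with beta catenin knocked out; cells exposed to compound for 60 hours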

Cytochrome P450 2C9, sequence (P11712 whole entry): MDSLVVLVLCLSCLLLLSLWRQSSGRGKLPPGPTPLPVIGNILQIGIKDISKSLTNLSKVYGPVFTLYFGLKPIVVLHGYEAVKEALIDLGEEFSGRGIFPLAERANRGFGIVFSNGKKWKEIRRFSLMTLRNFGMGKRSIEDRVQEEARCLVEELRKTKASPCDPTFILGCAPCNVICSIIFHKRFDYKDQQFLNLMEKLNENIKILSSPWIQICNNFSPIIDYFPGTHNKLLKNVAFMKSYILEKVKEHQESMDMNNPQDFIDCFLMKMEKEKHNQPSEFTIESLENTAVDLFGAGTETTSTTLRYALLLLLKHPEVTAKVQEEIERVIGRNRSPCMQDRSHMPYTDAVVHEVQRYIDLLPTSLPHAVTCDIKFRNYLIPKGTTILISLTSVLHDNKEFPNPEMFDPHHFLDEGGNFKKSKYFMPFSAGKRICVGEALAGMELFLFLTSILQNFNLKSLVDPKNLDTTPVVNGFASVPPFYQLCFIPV
Cytochrome P450 2C19, sequence (P33261 whole entry): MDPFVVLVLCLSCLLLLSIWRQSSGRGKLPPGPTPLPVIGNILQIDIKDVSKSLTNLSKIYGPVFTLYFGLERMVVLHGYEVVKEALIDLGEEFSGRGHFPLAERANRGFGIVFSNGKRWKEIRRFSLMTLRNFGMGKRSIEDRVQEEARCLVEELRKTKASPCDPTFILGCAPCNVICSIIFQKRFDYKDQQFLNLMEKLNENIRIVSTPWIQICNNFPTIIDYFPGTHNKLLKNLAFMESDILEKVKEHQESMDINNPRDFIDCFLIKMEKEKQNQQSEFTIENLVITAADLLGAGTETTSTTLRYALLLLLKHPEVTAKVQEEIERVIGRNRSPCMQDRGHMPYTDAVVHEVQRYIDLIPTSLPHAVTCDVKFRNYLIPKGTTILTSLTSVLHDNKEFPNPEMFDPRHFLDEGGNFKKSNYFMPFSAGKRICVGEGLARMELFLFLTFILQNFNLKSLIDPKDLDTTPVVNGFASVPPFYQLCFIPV

## Cc1ccc(NC(=O)/C(C#N)=C/c2ccc(C)s2)c(C)c1
[1]
  EC50: 64.2 µM (inconclusive)
[2]
  EC50: 9.25 µM (active)

## COc1ccc(CCNC(=O)c2ccc(CNS(=O)(=O)c3ccc(C(C)(C)C)cc3)cc2)cc1OC
Streptokinase A
  EC50: > 150 µM (not active)
Streptococcus
  EC50: 35.9 µM (active)

## COc1cccc(C(=O)NC(=S)Nc2ccccc2N2CCCCC2)c1
[3]
  EC50: 57.8 µM (active)
Streptokinase A
  EC50: 41 µM (active)
Streptococcus
  EC50: > 150 µM (not active)

## Nc1c(NCCC2=CCCCC2)c(=O)[nH]c(=O)n1Cc1ccccc1
[1]
  EC50: 23.2 µM (active)
[2]
  EC50: 13.9 µM (active)

## NS(=O)(=O)c1ccc(NC(S)=NNC(=O)CCC(=O)Nc2ccccc2Cl)cc1
[1]
  EC50: 13 µM (inconclusive)
[2]
  EC50: 12.2 µM (active)

## CSC(=Nc1ccc(F)c(Cl)c1)NS(=O)(=O)c1cccs1
[4]
  EC50: > 150 µM (inactive)
[5]
  EC50: 0.805 µM (active)

## COc1ccc(/C=C2/Sc3ccc(C(=O)N4CCc5ccccc5C4)cc3NC2=O)cc1
[3]
  EC50: 1.73 µM (active)
Streptokinase A
  EC50: > 150 µM (not active)
Streptococcus
  EC50: 4.98 µM (active)

## O=C(CCN1C(=O)/C(=C\C=C\c2ccccc2)SC1=S)Nc1ccc(C(=O)O)cc1
[1]
  EC50: > 300 µM (not active)
[2]
  EC50: 38.7 µM (active)

## CCN=C(S)N1CCC(NC(=O)C2CCCCC2)CC1
Cytochrome P450 2C19
  AC50: inconclusive
Cytochrome P450 2C9
  AC50: inconclusive

## CCCOc1ccc(C2C(C(=O)c3cc4ccccc4o3)=C(O)C(=O)N2c2cc(C)on2)cc1OC (stereo not drawn)
[3]
  EC50: 1.2 µM (active)
Streptokinase A
  EC50: > 150 µM (not active)
Streptococcus
  EC50: 5.24 µM (active)

## Cc1ccc(-c2nn(-c3ccccc3)cc2/C=N/n2c(S)nnc2-c2cccs2)cc1
[6]
  CC50: 14.7 µM (active)
[3]
  EC50: 10.3 µM (active)
Streptokinase A
  EC50: 103 µM (active)
Streptococcus
  EC50: 82.8 µM (active)

## CC1(C)CC(=O)C=C(Nc2ccc([N+](=O)[O-])cc2)C1
[4]
  EC50: > 160 µM (inactive)
[5]
  EC50: 2.93 µM (active)

## COC(=O)N/N=C\C=C\c1ccc2c(c1)OCO2
Cytochrome P450 2C9
  AC50: inconclusive

## CCOc1ccc(/C=N/Nc2nc(N3CCCC3)nc(N3CCCC3)n2)cc1OC
Cytochrome P450 2C19; read-out: AC50
  AC50: 39.8 µM (inconclusive)
Cytochrome P450 1A2
  AC50: 39.8 µM (inconclusive)
Cytochrome P450 2C9
  AC50: inconclusive

## CCN(CC)c1ccc(/C=N/Nc2nc3ccccc3[nH]2)cc1
[4]
  EC50: 6.64 µM (active)
[5]
  EC50: > 38 µM (not active)
[7]
  EC50: 2.96 µM (active)
[8]
  EC50: 2.76 µM (active)

## CO/N=C/C(=C\Nc1ccc(Cl)cc1Cl)c1ncc(C(F)(F)F)cc1Cl
[4]
  EC50: > 160 µM (inconclusive)
